# Assay results as given in patent US20230233500A1, “Gasdermin D (GSDMD) Succination for the Treatment of Inflammatory Disease” (University of Massachusetts, priority 2020, published 2023).
# Structures can show the parent of a compound that is named as a salt.
# Experiments:
# Type in all cases: cell-based, mouse
# [1] = system: Bone marrow-derived macrophages (BMDMs); assay: LPS-nigericin inflammasome activation/pyroptosis in BMDMs; settings: for LPS-Nig induced pyroptosis (inhibitory effect): BMDMs, compound 25 μM 1 hour, nigericin; for LPS-Nig induced pyroptosis (inhibitory effect) / LPS-Nig-induced release of LDH / LPS-Nig-induced release of IL-1β: LPS 2 hr; for LPS-Nig-induced release of LDH / LPS-Nig-induced release of IL-1β / kinetic cell death / formation of GSDMD-N: WT BMDMs; for LPS-Nig-induced release of LDH / LPS-Nig-induced release of IL-1β: compound 1 hour (fumarate 25 μM), then nigericin; for LPS-Nig-induced release of IL-1β: ELISA; for kinetic cell death / formation of GSDMD-N: LPS-Nig; for kinetic cell death: SYTOX orange, 0-6 hrs; for formation of GSDMD-N: immunoblot
# Procedure: Human kidney cell line HEK293T was cultured in Dulbecco's modified Eagle's medium supplemented with 10% (v/v) fetal bovine serum, 100 U/ml penicillin and 100 µg/ml streptomycin. Human peripheral blood monocyte cell line, THP1 cells were cultured in RPMI-1640 medium supplemented with 10% (v/v) fetal bovine serum, 100 U/ml penicillin and 100 µg/ml streptomycin. For isolation of BMDMs, tibias and femurs were removed from wild type and GsdmD^−/− mice and bone marrow was flushed with complete DMEM-medium. Cells were plated in medium containing 20% (v/v) conditioned medium of L929 mouse fibroblasts cultured for 7 days at 37° C. in a humidified atmosphere of 5% C02. Medium was replaced every 3 days.
# Conditioned media or serum was collected as indicated and IL-1β or TNF-α, were quantified by sandwich ELISA (R&D Systems).
# Cells were plated, treated and incubated in phenol red free medium. Following treatment medium was collected and assessed for LDH release using the CytoTox96 non-radioactive cytotoxicity assay (Promega) as per manufacturer's instructions. Kinetic cell death assays were performed using SytoxOrange and the Biotek Cytation5.
# For noncanonical inflammasome activation, cells were primed with […] Pam3CSK4 (Invivogen) for 2 h, followed by transfection of LPS (2 μg/ml) using Lipofectamine 2000 for 16 hours.
# Primary BMDMs from WT or GsdmD^−/− mice were cultured in 12-well plates (1×10^6 cells per ml; 1 ml) or 10 cm dishes (2×10^6 cells per ml; 10 ml). HEK293T cells (2.5×10^5 cells per ml; 3 ml) were cultured in 6-well plates and transfected with FLAG-tagged GSDMD constructs where indicated. For cell lysate analysis cells were lysed directly in 1× Lamelli sample buffer. For native gel analysis cells were lysed in NP-40 lysis buffer (50 mM Tris-HCl, pH 7.4, containing 150 mM NaCl, 0.5% (w/v) IgePal, 50 mM NaF, 1 mM Na3VO4, 1 mM dithiothreitol, 1 mM phenylmethylsulfonyl fluoride and protease inhibitor cocktail. For immunoprecipitation of GSDMD, cells were treated as indicated and then collected in 500 μl RIPA buffer, followed by incubation for 15 min on ice. Lysates were incubated with GSDMD antibody and protein A-protein G-agarose was added to each sample, followed by incubation overnight at 4° C. Immunoprecipitates were collected by centrifugation and washed four times with 1 ml of RIPA buffer. Immunprecipates were eluted from beads using 1× sample buffer. Samples were resolved by SDS-PAGE and stained using simply blue safe stain or transferred to nitrocellulose membranes and analyzed by immunoblot. Immunoreactivity was visualized by the Odyssey Imaging System (LICOR Biosciences). For immunoblotting of IL-1β in cell supernatants, conditioned medium was collected and filtered using filter spin columns to reduce salt and remove abundant serum proteins. Filtrates were added to 4×SDS-PAGE sample buffer and resolved by SDS-PAGE for immunoblot analysis. GSDMD (ab209845) and GSDME antibodies were from abcam (ab215191). Caspase 1 antibody was from adipogen. Fumarase antibody was from cell signalling and anti-β-actin (AC-15; A1978) were from Sigma; anti-mouse IRDye™ 680 (926-68070) and anti-rabbit IRDye™ 800 (926-32211) were from LI-COR Biosciences.
# Numerous studies have shown that cell metabolism impacts inflammatory responses. LPS activated macrophages switch from oxidative phosphorylation to aerobic glycolysis. Krebs cycle intermediates such as succinate and itaconate accumulate and moonlight as positive and negative regulators of inflammatory gene expression (3-8). To determine if Krebs cycle intermediates modulate pyroptosis, we tested their effect on inflammasome responses. Bone marrow-derived macrophages (BMDMs) were primed with LPS (2 hr) before being exposed to metabolites and then exposed to nigericin (Nig) and inflammasome activation/pyroptosis measured. The metabolites were added after LPS to avoid any impact on transcription. […] Fumarate impaired kinetic cell death (0-6 hrs) (FIG. 1E, FIG. 5A). […]
# NRF2 target gene Hmox1 = assay: QPCR of Hmox1 mRNA in BMDMs; settings: WT BMDMs, ML385 1 μM 3 hours
# Procedure: (§1) FIGS. 7A-K. Fumarate regulates pyroptosis independently of NRF2 and GAPDH. (A-B) Kinetic cell death data of WT primary BMDMs treated with LPS for 2 hours, DMSO (vehicle) or fumarate (25 μM) or heptilidic acid (HA) (0.5 μM or 1 μM) (A) or ML385 (1 μM) (B) followed by nigericin (10 μM) for 6 hours. (C-D) LDH (C) and IL-1B (D) release from WT primary BMDMs treated with LPS for 2 hours, DMSO (vehicle) or fumarate (25 μM) for 1 hour, HA or ML385 (1 μM) for 1 hour followed by nigericin (10 μM) or 1 hour. (E-F) Immunoblot analysis of GSDMD in cell lysates from WT BMDMs treated as in (B) with the indicated inhibitors. (G-H) QPCR (G) and immunoblot (H) analysis of iNos in WT BMDMs treated with DMSO (vehicle) or HA (1 μM) for 1 hour and LPS for 3 (G) or 6 (H) hours. (I) QPCR analysis of Hmox1 mRNA in WT BMDMs treated with DMSO (vehicle) or ML385 (1 μM) for 3 hours. (J-K) LDH assay (J) and immunoblot analysis of GSDMD (K) in WT BMDMs transfected with control non-targeting siRNA or NRF2-specific siRNAs (50 nM) for 48 hours followed by treatment with LPS for 2 hours, DMSO (vehicle) or fumarate (25 μM) and nigericin (10 μM) or 1 hour. A, B, E, F, H, K representative images from 3 independent experiments. C, D, G, I, K pooled data from 3 independent experiments. *, P<0.01, ****, P<0.00001 (Two-way ANOVA). Error bars show means±SD (A, B) or SEM (C, D, G, I, J).
# GAPDH target gene iNos = assay: QPCR/immunoblot of iNos in BMDMs; settings: WT BMDMs, HA 1 μM 1 hour, LPS 3 or 6 hours
# Procedure: as §1
SMILES,LPS-Nig induced pyroptosis (inhibitory effect) [1],expression of NRF2 target gene Hmox1 (NRF2 target gene Hmox1),LPS-Nig-induced release of LDH [1],LPS-Nig-induced release of IL-1β [1],kinetic cell death [1],formation of GSDMD-N [1],expression of GAPDH target gene iNos (GAPDH target gene iNos)
"COC(=O)/C=C/C(=O)O [MMF, Monomethyl fumarate]",no inhibitory effect,,,,,,
Cc1ccccc1C(=O)N1CCc2cc(-c3nc(NC(=O)Cc4ccc5c(c4)OCO5)sc3C)ccc21 [ML385],,inhibited,no impact,no impact,no impact,no impact,
COC(=O)/C=C/C(=O)OCCN1C(=O)CCC1=O [diroximel fumarate],blocked,,,,,blocked,
CC(C)[C@H]1CC[C@@]2(CO2)[C@H]2C(=O)OCC(C(=O)O)=C[C@H]12 [Heptilidic acid],,,no impact,no impact,no impact,no impact,inhibited
CCN(CC)C(=O)COC(=O)/C=C/C(=O)OC [tepilamide fumarate],blocked,,,,,blocked,
